Data taken from patent EP0070186B1, “Biologically active peptides” (CELLTECH LIMITED, priority 1981, dated 1985).

How the values were obtained:
[1] = literature (Gudmundson et al. 1966); cited from earlier work
[2] = test system: female Wistar rats; experiment: randomized bioassay, effect on plasma calcium after tail vein injection (Example 2); format: in vivo
Experimental: After preliminary experiments had shown that the time courses of the effects of PDN 21 and human calcitonin (hCT) on plasma calcium were similar, peptide in acetate buffer was injected into the tail vein of female Wistar rats (mean wt 45 g, range 43―48, Oxfordshire Laboratory Animal Colonies (1976) Ltd.) and blood was taken from the aorta after 30 min in a randomized bioassay (Macintyre, I. Galante, L. S. & Hillyard, C. J. in Handbuch der inneren MedizinVllIA(eds) Kuhlen- cordt, F. & Bartelheimer, H. 623-634 (Springer-Verlag, Heidelberg, 1980)). Plasma calcium was measured colormetrically by the method of (Gindler, E. M. & King, J. D. Amer. J.Clin. Path. 58, 376―382 (1972)), and the values confirmed by atomic absorption spectrophotometry. The results are shown graphically in Figure 3. Each point is the mean from three rats 0 PDN-21; A hCT (WHO 1st International Reference Preparation of Calcitonin Hormone for Bioassay, 70/234 supplied by the National Institute for Biological Standards and Control); DhCT+PDN-21 (800 ng PDN 21 was injected with each dose of calcitonin). […] Smoothed curves were fitted to the data by eye. […] Potencies were calculated in terms of hCT over the dose ranges where the log dose response is linear, yielding values of 0.017 milliunits hCT equivalent/ng PDN-21 and 5.11 milliunits hCT equivalent/milliunit hCT in the hCT+PDN-21 group. […]

Row | Substance | effect on plasma phosphate [1] | enhancement of the potency of hCT ([2]; in the presence of a maximal dose of PDN-21, plasma calcium in the rat) | dose giving 50% response (ED50), plasma calcium ([2]; tail vein injection, blood after 30 min, probit transformation) [MRC milliunits]
1 | calcitonin | lowers |  | 
2 | human calcitonin [hCT] |  | five-fold | 0.71
